From ChEMBL document CHEMBL2021868, “Synthesis and evaluation of [¹⁸F]fluororasagiline, a novel positron emission tomography (PET) radioligand for monoamine oxidase B (MAO-B)” (Bioorg Med Chem, 2012)

Legend:
[1] = species: Homo sapiens; assay: Selectivity ratio of IC50 for human recombinant MAO-A to IC50 for human recombinant MAO-B
[2] = Drug uptake in cynomolgus monkey striatum at 163 MBq, iv measured up to 120 mins; type: ADME, organism-based, Macaca fascicularis; conditions: in vivo, 2 h
[3] = test system: Plasma; assay: Metabolic stability in cynomolgus monkey plasma assessed as radioactivity remaining at 163 Mbq, iv measured after 45 mins by HPLC analysis; type: ADME, organism-based, Macaca fascicularis; conditions: in vivo, 0.75 h
[4] = test system: Thalamus; assay: Drug uptake in cynomolgus monkey thalamus at 163 MBq, iv measured up to 120 mins; type: ADME, organism-based, Macaca fascicularis; conditions: in vivo, 2 h
[5] = target: T1, Amine oxidase [flavin-containing] B (Homo sapiens, UniProt P27338); assay: Binding affinity to MAO-B in human brain hippocampus region at 4 MBq/200 ml after 90 mins by autoradiography analysis; type: tissue-based; conditions: 1.5 h
T1 sequence (P27338 whole entry): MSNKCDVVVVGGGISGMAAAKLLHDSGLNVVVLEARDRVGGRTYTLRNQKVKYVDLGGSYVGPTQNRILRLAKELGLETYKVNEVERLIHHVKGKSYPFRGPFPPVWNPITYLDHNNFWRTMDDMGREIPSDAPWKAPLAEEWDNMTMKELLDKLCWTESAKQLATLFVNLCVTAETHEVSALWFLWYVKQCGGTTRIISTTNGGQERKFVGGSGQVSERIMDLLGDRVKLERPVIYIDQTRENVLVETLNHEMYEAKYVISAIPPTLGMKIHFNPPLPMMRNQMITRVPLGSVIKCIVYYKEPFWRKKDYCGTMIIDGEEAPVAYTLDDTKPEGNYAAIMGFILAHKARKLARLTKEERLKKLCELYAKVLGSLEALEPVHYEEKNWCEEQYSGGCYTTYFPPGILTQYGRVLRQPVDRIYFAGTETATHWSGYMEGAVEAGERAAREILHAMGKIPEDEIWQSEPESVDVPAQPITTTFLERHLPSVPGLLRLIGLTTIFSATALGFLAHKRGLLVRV

[6] = test system: Plasma; assay: Drug metabolism in cynomolgus monkey plasma assessed as [18F]a metabolite retention time at 163 Mbq, iv measured by HPLC analysis; type: ADME, organism-based, Macaca fascicularis; conditions: in vivo
[7] = test system: Plasma; assay: Drug metabolism in cynomolgus monkey plasma assessed as [18F]fluoroaminoindan metabolite retention time at 163 Mbq, iv measured by HPLC analysis; type: ADME, organism-based, Macaca fascicularis; conditions: in vivo
[8] = target: T1, Amine oxidase [flavin-containing] B; assay: Binding affinity to MAO-B in human brain at 4 MBq/200 ml after 90 mins by autoradiography analysis in presence of 10 uM pirlindole; conditions: 1.5 h
[9] = test system: Brain; assay: Drug uptake in cynomolgus monkey brain at 163 MBq, iv measured after wash out; type: ADME, organism-based, Macaca fascicularis; conditions: in vivo
[10] = target: T1, Amine oxidase [flavin-containing] B; assay: Binding affinity to MAO-B in human brain putamen region at 4 MBq/200 ml after 90 mins by autoradiography analysis; conditions: 1.5 h
[11] = test system: Plasma; assay: Drug metabolism in cynomolgus monkey plasma assessed as [18F]b metabolite retention time at 163 Mbq, iv measured by HPLC analysis; type: ADME, organism-based, Macaca fascicularis; conditions: in vivo
[12] = Drug uptake in cynomolgus monkey cortex at 163 MBq, iv measured up to 120 mins; type: ADME, organism-based, Macaca fascicularis; conditions: in vivo, 2 h
[13] = target: T2, Amine oxidase [flavin-containing] A (Homo sapiens, UniProt P21397); assay: Inhibition of human recombinant MAO-A expressed in insect cells assessed as kynuramine hydrobromide oxidation after 20 mins by spectrophotometric analysis
T2 sequence (P21397 whole entry): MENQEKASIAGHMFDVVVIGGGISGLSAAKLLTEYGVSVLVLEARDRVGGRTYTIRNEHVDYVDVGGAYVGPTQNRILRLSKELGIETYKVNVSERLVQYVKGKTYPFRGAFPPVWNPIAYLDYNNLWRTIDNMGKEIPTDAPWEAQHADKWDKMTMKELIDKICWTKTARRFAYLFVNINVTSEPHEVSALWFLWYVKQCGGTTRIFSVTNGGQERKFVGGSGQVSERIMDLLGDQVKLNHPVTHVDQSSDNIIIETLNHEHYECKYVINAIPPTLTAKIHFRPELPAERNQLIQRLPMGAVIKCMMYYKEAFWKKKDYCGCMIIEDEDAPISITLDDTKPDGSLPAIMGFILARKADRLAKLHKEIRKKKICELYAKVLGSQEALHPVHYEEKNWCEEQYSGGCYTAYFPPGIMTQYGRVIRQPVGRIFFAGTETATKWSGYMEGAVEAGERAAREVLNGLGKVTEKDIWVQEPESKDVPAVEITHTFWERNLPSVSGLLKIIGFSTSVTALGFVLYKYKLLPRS

[14] = target: T1, Amine oxidase [flavin-containing] B; assay: Binding affinity to MAO-B in human brain external globus pallidus region at 4 MBq/200 ml after 90 mins by autoradiography analysis; type: tissue-based; conditions: 1.5 h
[15] = test system: Brain; assay: Drug uptake in cynomolgus monkey brain at 163 MBq, iv after 4 mins; type: ADME, organism-based, Macaca fascicularis; conditions: in vivo
[16] = target: T1, Amine oxidase [flavin-containing] B; assay: Binding affinity to MAO-B in human brain caudate nucleus region at 4 MBq/200 ml after 90 mins by autoradiography analysis; conditions: 1.5 h
[17] = Chemical stability of the compound in PBS assessed as compound remaining at pH 7.4 after 180 mins; type: physicochemical; conditions: read-out: Stability
[18] = test system: Plasma; assay: Metabolic stability in cynomolgus monkey plasma assessed as radioactivity remaining at 163 Mbq, iv measured after 120 mins by HPLC analysis; type: ADME, organism-based, Macaca fascicularis; conditions: in vivo, 2 h
[19] = target: T1, Amine oxidase [flavin-containing] B; assay: Binding affinity to MAO-B in human brain at 4 MBq/200 ml after 90 mins by autoradiography analysis in presence of 10 uM rasagiline; conditions: 1.5 h
[20] = target: T1, Amine oxidase [flavin-containing] B; assay: Binding affinity to MAO-B in human brain at 4 MBq/200 ml after 90 mins by autoradiography analysis in presence of 10 uM L-deprenyl; conditions: 1.5 h
[21] = Drug uptake in cynomolgus monkey cerebellum at 163 MBq, iv measured up to 120 mins; type: ADME, organism-based, Macaca fascicularis; conditions: in vivo, 2 h
[22] = target: T1, Amine oxidase [flavin-containing] B; assay: Inhibition of human recombinant MAO-B expressed in insect cells assessed as kynuramine hydrobromide oxidation after 20 mins by spectrophotometric analysis; type: cell-based
[23] = target: T1, Amine oxidase [flavin-containing] B; assay: Binding affinity to MAO-B in human brain thalamus region at 4 MBq/200 ml after 90 mins by autoradiography analysis; type: tissue-based; conditions: 1.5 h
[24] = test system: Plasma; assay: Drug metabolism in cynomolgus monkey plasma assessed as formation of [18F]fluoroaminoindan metabolite at 163 Mbq, iv by HPLC analysis in presence of non-radioactive compound; type: ADME, organism-based, Macaca fascicularis; conditions: in vivo

`C#CCN[C@H]1c2ccccc2C[C@@H]1F` gave a Ratio IC50 [1] of 84.

For `C#CCN[C@H]1c2ccccc2C[C@@H]1[18F]` [[18F]FLUORORASAGILINE], the Drug uptake [2] was “Active”, the Stability [3] was 50% and the Drug uptake [4] was “Active”. The Activity [5] was “Active”, the Time [6] was 2.7 min and the Time [7] was 4.6 min. For the same compound, the Activity [8] was “Active”, the Drug uptake [9] was “Active” and the Activity [10] was “Active”. For the same compound, the Time [11] was 9.2 min, the Drug uptake [12] was “Not Active” and the IC50 [13] was 2.3 µM. For the same compound, the Activity [14] was “Active”, the SUV [15] was 250% and the Activity [16] was “Active”. The remaining at 3 h [17] was greater than 97%, the Stability [18] was 20% and the Activity [19] was “Not Active”. For the same compound, the Activity [20] was “Not Active”, the Drug uptake [21] was “Not Active” and the IC50 [22] was 0.027 µM. The Activity [23] was “Active” and the Drug metabolism [24] was “Active”.
